This assay concerns the target Glutamate NMDA receptor. The assay is described as follows: The compound was tested for NMDA antagonist activity against [3H]-CGS- 19755 binding in rat cortex preparation.

For orientation: Ki means a dissociation constant, usually derived from enzyme kinetics or from competition with a known ligand. `O=C(CP(=O)(O)O)[C@H]1CCCN[C@H]1C(=O)O` (stereo in doubt; 15) gave a Ki of over 1000 nM. `O=C(O)[C@@H]1C[C@H](CP(=O)(O)O)CCN1` (single isomer, unassigned) [SELFOTEL] gave a Ki of 40 nM. In the case of `O=C(CP(=O)(O)O)[C@H]1CCCN[C@H]1C(=O)O` (stereo in doubt; 1) it was 69 nM; in that of `O=C(O)[C@@H]1NCCC[C@@H]1C(O)CP(=O)(O)O` (stereo not given in full), 106 nM; in that of `O=C(CP(=O)(O)O)[C@H]1CCCN[C@H]1C(=O)O` (stereo in doubt; 14), 64 nM.

The record behind these values is ChEMBL document CHEMBL1126347, “Competitive NMDA antagonist that base their activity on a unique conformational effect” (Bioorg Med Chem Lett, 1992).
